In patent US10138247B2, “7-(morpholin-4-yl)pyrazole[1,5-A]pyrimidine derivatives as PI3 kinase inhibitors” (priority 2015, dated 2018) one finds IC50 data, which are given here for 20 compounds.

Type in all cases: biochemical
In test [1] the target is T1, PI3Kα (Homo sapiens, UniProt P42336).
T1 construct: purchased Carna Biosciences
The test is described as follows: PI3K kinases inhibition in vitro (ADP-Glo), PI3Kα. On the procedure: (§1) Tested compounds were dissolved in 100% DMSO, and thus obtained solutions were serially diluted in 1× reaction buffer. Recombinant kinase was diluted in a reaction mixture comprising 5× reaction buffer, substrate (1 mM sodium diacetate 4,5-bisphosphate phosphatydylinositol (PIP2) solution in 40 mM Tris buffer), and water. To the wells in a 96-wells plate, 5 μl of compounds solutions and 15 μl of the kinase solution in the reaction mixture were added. To initiate interaction of tested chemical compounds with the enzyme, the plate was incubated for 10 minutes at suitable temperature in a plate thermostat with orbital shaking at 600 rpm. Negative control wells contained all above reagents except tested compound and kinase, and positive control wells contained all above reagents except tested compounds. Enzymatic reaction was initiated by adding 5 μl of 150 μM ATP solution, subsequently the plate was incubated for 1 hour at 25° C. or 30° C. (depending on PI3K isoform tested) in plate thermostat with orbital shaking of the plate contents at 600 rpm. Reaction conditions are presented below in Table 12.
(§2) Detection of ADP formed in the enzymatic reaction was then performed using ADP-Glo Kinase Assay (Promega). To the wells of a 96-well plate 25 μl of ADP-Glo Reagent were added, and the plate was incubated for 40 minutes at 25° C. in a plate thermostat with orbital shaking at 600 rpm. Then to the wells of 96-well plate 50 μl of Kinase Detection Reagent were added and the plate was incubated for 40 minutes at 25° C. in a plate thermostat with orbital shaking at 600 rpm. After incubation time, luminescence intensity in a well was measured by Victor Light luminometer (Perkin Elmer, Inc.).
(§3) IC50 values were determined on the basis of luminescence intensity measurements in wells containing tested compounds at different concentrations and in control wells. These values were calculated with Graph Pad 5.03 software by fitting the curve using non-linear regression. Each compound was tested at least in quadruplicates (4 wells) on two 96-well plates using at least 4 wells of each of the controls.
(ADP-Glo first removes unused ATP, then detects ADP through luciferase.)

Test [2] has as its target T2, PI3Kβ (Homo sapiens, UniProt P42338).
T2 construct: purchased Merck Millipore
Nature of the test: PI3K kinases inhibition in vitro (ADP-Glo), PI3Kβ. Here is the method: as §1, §2, §3

The target of test [3] is T3, PI3Kδ (Homo sapiens, UniProt O00329).
T3 construct: purchased Merck Millipore
T3 sequence (O00329 whole entry): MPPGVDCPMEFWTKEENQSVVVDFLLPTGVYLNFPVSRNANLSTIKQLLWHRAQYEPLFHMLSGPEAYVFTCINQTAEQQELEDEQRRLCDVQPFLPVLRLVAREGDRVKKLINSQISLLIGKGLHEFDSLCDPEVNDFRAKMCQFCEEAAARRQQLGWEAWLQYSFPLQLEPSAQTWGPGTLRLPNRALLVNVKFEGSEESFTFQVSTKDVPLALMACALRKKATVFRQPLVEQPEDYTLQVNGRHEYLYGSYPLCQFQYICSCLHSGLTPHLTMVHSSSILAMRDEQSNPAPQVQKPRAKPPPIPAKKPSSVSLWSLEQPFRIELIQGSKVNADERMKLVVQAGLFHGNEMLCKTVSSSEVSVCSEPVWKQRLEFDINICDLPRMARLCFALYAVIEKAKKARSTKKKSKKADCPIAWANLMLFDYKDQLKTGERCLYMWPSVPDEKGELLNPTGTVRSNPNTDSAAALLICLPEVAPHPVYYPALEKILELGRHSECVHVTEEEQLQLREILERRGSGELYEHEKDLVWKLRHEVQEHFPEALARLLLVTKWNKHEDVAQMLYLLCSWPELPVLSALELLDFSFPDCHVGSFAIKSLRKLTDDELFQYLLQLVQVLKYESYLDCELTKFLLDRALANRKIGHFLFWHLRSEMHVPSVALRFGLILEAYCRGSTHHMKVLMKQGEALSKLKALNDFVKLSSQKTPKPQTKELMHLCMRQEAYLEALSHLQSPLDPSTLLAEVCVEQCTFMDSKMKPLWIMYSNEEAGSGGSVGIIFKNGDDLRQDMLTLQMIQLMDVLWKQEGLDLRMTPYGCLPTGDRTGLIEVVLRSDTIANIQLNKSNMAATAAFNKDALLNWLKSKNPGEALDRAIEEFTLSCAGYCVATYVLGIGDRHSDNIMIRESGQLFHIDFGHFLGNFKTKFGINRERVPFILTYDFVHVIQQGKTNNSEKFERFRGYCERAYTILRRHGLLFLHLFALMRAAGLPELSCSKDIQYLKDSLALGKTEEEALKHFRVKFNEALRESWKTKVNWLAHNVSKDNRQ
T3 sequence (P27986 whole entry, further chain): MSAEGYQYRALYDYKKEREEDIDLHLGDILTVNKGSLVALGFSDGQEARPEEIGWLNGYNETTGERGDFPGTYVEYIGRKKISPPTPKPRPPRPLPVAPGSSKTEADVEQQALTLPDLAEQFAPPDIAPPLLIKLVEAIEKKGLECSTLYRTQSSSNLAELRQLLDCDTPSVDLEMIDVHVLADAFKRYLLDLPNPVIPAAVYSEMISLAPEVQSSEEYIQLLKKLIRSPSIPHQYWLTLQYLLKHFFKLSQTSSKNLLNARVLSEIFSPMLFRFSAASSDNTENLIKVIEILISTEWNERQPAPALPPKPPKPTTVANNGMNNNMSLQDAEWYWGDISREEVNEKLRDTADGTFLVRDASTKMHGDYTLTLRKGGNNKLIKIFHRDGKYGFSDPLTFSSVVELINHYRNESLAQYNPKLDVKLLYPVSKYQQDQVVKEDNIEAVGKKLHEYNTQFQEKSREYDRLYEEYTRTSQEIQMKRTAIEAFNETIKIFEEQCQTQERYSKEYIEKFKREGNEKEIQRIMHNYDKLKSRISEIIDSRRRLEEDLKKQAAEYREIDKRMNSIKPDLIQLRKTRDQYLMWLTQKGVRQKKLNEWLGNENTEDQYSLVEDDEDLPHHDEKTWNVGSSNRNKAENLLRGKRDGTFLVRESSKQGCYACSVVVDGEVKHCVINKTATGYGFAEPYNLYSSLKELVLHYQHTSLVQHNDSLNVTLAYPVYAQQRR
The test is described as follows: PI3K kinases inhibition in vitro (ADP-Glo), PI3Kδ. Here is the method:
as §1, §2, §3

Test [4] addresses T4, PI3Kγ (Homo sapiens, UniProt P48736).
T4 construct: purchased Merck Millipore
The test is described as follows: PI3K kinases inhibition in vitro (ADP-Glo), PI3Kγ. Here is the method: as §1, §2, §3

Where [5] appears, read: averaged, recombinant kinase, 30° C., 1 h, PIP2 50 μM, read-out: PI3Kβ IC50.
[6] abbreviates: averaged, recombinant kinase, 25° C., 1 h, PIP2 30 μM, read-out: PI3Kδ IC50.
Setting [7] is: averaged, recombinant kinase, 30° C., 1 h, PIP2 50 μM, read-out: PI3Kγ IC50.

Where two headings read alike, the source gives them in different places.

T4 sequence (P48736 whole entry): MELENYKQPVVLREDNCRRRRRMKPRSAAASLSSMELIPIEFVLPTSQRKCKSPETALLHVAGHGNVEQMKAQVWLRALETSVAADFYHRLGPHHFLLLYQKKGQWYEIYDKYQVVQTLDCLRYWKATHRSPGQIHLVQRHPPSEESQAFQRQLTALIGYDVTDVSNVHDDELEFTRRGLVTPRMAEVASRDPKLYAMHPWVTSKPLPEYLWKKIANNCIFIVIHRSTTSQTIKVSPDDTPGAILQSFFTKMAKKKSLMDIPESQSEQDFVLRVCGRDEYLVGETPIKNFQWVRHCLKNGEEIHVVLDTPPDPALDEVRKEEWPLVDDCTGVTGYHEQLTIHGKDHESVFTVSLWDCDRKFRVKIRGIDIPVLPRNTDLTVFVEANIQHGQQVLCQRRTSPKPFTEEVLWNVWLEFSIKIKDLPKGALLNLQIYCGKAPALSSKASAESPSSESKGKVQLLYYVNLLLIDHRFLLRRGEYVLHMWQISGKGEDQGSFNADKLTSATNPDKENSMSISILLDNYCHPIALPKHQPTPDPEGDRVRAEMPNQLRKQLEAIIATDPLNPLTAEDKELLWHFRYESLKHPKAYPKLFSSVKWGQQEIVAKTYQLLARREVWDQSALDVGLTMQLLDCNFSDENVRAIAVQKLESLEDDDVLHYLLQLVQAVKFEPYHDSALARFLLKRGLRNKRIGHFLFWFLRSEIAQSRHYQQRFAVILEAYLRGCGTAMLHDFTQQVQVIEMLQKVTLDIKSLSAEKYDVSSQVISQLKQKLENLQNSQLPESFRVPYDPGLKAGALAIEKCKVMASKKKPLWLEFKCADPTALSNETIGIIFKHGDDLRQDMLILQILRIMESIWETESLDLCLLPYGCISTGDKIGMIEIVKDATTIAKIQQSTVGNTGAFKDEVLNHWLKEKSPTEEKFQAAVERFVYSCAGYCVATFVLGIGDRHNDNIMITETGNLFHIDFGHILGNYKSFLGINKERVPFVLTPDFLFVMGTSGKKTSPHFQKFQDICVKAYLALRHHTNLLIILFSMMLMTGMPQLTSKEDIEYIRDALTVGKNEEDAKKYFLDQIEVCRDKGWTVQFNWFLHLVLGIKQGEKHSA
T1 sequence (P42336 whole entry): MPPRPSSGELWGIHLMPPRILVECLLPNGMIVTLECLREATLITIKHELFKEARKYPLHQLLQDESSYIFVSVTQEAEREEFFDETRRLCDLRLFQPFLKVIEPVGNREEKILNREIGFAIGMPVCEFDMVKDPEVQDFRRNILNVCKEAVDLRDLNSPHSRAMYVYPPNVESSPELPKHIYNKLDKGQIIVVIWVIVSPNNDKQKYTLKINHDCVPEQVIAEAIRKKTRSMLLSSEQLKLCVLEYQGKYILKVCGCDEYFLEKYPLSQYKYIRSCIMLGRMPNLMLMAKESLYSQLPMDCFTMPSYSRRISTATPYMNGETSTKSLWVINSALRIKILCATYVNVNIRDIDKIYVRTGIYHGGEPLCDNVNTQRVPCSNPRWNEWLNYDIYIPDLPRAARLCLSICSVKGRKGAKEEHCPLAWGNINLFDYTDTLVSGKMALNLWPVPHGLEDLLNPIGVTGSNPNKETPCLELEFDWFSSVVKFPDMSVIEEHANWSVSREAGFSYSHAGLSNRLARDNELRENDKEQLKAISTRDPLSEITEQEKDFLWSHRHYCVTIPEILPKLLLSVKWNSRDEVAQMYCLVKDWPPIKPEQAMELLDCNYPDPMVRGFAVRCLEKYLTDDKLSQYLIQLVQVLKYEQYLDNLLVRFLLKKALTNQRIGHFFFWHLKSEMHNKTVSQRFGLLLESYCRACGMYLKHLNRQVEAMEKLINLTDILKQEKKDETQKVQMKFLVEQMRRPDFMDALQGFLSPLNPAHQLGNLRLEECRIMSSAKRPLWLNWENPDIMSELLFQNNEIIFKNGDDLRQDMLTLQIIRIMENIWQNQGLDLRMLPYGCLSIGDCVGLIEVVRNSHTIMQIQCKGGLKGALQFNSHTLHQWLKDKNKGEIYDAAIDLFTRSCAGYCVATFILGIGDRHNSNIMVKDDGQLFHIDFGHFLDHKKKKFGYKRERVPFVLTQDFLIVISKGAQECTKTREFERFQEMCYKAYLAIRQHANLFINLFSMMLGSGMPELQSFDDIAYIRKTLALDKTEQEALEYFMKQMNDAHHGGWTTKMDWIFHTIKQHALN
T1 sequence (P27986 whole entry partner): as the sequence (P27986 whole entry, further chain) above
T2 sequence (P42338 whole entry): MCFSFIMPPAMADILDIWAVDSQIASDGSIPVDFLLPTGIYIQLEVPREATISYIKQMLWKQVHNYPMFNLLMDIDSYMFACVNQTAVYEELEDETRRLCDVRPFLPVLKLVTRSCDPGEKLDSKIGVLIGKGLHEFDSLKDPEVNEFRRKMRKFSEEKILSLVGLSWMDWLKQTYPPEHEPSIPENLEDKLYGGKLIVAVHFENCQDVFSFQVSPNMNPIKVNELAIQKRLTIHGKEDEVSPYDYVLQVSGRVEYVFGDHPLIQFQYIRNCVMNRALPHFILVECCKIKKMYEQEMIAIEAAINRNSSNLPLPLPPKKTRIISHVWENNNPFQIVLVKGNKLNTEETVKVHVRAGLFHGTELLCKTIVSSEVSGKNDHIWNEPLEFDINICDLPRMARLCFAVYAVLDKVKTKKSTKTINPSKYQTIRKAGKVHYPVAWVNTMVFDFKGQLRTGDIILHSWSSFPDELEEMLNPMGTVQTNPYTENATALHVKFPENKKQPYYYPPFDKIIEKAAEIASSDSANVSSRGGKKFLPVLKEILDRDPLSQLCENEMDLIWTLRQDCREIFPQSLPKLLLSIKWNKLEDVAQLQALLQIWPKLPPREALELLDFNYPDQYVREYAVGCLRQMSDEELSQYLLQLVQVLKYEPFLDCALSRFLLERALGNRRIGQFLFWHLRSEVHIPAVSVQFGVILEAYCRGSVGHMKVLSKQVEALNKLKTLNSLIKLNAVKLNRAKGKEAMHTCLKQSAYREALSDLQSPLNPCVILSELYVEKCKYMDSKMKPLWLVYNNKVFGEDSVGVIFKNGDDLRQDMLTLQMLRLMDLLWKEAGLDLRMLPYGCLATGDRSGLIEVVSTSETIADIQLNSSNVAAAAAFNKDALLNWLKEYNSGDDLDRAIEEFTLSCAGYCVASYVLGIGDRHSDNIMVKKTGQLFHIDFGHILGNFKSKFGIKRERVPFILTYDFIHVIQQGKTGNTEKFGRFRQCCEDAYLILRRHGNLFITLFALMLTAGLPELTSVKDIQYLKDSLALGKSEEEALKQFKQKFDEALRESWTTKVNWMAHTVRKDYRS
T2 sequence (P27986 whole entry, further chain): as the sequence (P27986 whole entry, further chain) above

With `CC(C)(C)N1CCN(Cc2cc3nc(-c4ccnc5[nH]ccc45)cc(N4CCOCC4)n3n2)CC1` [Example 32, 5-(1H-7-azaindol-4-yl)-2-((4-tert-butylpiperazin-1-yl)methyl)-7-(morpholin-4-yl)pyrazolo[1,5-a]-pyrimidine], the IC50 (usually the concentration needed to halve the response being measured) is above 1000 nM in test [1], above 1000 nM in test [2] (setting [5]) and below 100 nM in test [3] (setting [6]).

As to `Cc1c(CN2CCC(C(C)(C)O)CC2)nn2c(N3CCOCC3)cc(-n3c(C(F)F)nc4ccccc43)nc12` [Example 69, 5-(2-(difluoromethyl)benzimidazol-1-yl)-3-methyl-2-((4-(2-hydroxy-propan-2-yl)piperidin-1-yl)methyl)-7-(morpholin-4-yl)pyrazolo[1,5-a]-pyrimidine], the IC50 in test [1] was 100 to 1000 nM; in test [2] (setting [5]), above 1000 nM; in test [4] (setting [7]), above 1000 nM; in test [3] (setting [6]), below 100 nM.

For `c1cc(-c2cc(N3CCOCC3)n3nc(CN4CC(N5CCOCC5)C4)cc3n2)c2cc[nH]c2c1` [Example 25, 5-(1H-indol-4-yl)-2-((3-(morpholin-4-yl)azetidin-1-yl)methyl)-7-(morpholin-4-yl)pyrazolo[1,5-a]-pyrimidine], the IC50 in test [1] is above 1000 nM; in test [2], above 1000 nM; in test [4], above 1000 nM; in test [3], below 100 nM.

As for `Fc1ccc2[nH]ccc2c1-c1cc(N2CCOCC2)n2nc(CN3CCN(C4COC4)CC3)cc2n1` [Example 35], the 50% inhibitory concentration (IC50) in test [1] is above 1000 nM; in test [2] (setting [5]) it was above 1000 nM; in test [4] (setting [7]), above 1000 nM; in test [3] (setting [6]) it was below 100 nM.

`O=C(C1CC1)N1CCN(Cc2cc3nc(-c4cccc5[nH]ccc45)cc(N4CCOCC4)n3n2)CC1` [Example 1, 2-((4-(cyclopropanecarbonyl)piperazin-1-yl)methyl)-5-(1H-indol-4-yl)-7-(morpholin-4-yl)pyrazolo[1,5-a]pyrimidine]: the IC50 in test [1] was above 1000 nM; in test [2] (setting [5]), above 1000 nM; in test [4] (setting [7]) it was 100 to 1000 nM; in test [3] (setting [6]), below 100 nM.

For the compound `CC(C)(C)N1CCN(Cc2cc3nc(-c4cnc(N)nc4)cc(N4CCOCC4)n3n2)CC1` [Example 17, 5-(2-aminopyrimidin-5-yl)-2-((4-tert-butylpiperazin-1-yl)methyl)-7-(morpholin-4-yl)pyrazolo[1,5-a]-pyrimidine], the 50% inhibitory concentration (IC50) was above 1000 nM in test [1], above 1000 nM in test [2] (setting [5]), above 1000 nM in test [4] (setting [7]) and below 100 nM in test [3] (setting [6]).

Regarding `CC(C)(C)N1CCN(Cc2cc3nc(-c4cncc5[nH]ccc45)cc(N4CCOCC4)n3n2)CC1` [Example 30, 5-(1H-6-azaindol-4-yl)-2-((4-tert-butylpiperazin-1-yl)methyl)-7-(morpholin-4-yl)pyrazolo[1,5-a]-pyrimidine], the IC50 in test [1] was above 1000 nM; in test [2], above 1000 nM; in test [4], above 1000 nM; in test [3], below 100 nM.

With `Cc1c(CN2CCN(C(C)(C)C)CC2)nn2c(N3CCOCC3)cc(-n3c(C(F)F)nc4ccccc43)nc12` [Example 68, 5-(2-(difluoromethyl)benzimidazol-1-yl)-3-methyl-2-((4-tert-butylpiperazin-1-yl)methyl)-7-(morpholin-4-yl)pyrazolo[1,5-a]-pyrimidine], the IC50 was 100 to 1000 nM in test [1], above 1000 nM in test [2] (setting [5]), above 1000 nM in test [4] (setting [7]) and below 100 nM in test [3] (setting [6]).

`CC(C)(O)C1CCN(Cc2cc3nc(-c4ccc(N)nc4)cc(N4CCOCC4)n3n2)CC1` [Example 19, 5-(2-aminopyridin-5-yl)-2-((4-(2-hydroxypropan-2-yl)piperidin-1-yl)methyl)-7-(morpholin-4-yl)-pyrazolo[1,5-a]pyrimidine]: the IC50 is above 1000 nM in test [1], above 1000 nM in test [2] (setting [5]), above 1000 nM in test [4] (setting [7]) and below 100 nM in test [3] (setting [6]).

For the compound `CC(C)(O)C1CCN(Cc2cc3nc(-c4ccnc5[nH]ccc45)cc(N4CCOCC4)n3n2)CC1` [Example 33, 5-(1H-7-azaindol-4-yl)-2-((4-(2-hydroxypropan-2-yl)piperidin-1-yl)methyl)-7-(morpholin-4-yl)-pyrazolo[1,5-a]pyrimidine], the IC50 is above 1000 nM in test [1], above 1000 nM in test [2] (setting [5]), above 1000 nM in test [4] (setting [7]) and below 100 nM in test [3] (setting [6]).

Regarding `CC(C)(O)C1CCN(Cc2cc3nc(-c4c(F)ccc5[nH]ccc45)cc(N4CCOCC4)n3n2)CC1` [Example 7, 2-((4-(2-hydroxypropan-2-yl)-piperidin-1-yl)methyl)-5-(5-fluoro-1H-indol-4-yl)-7-(morpholin-4-yl)-pyrazolo[1,5-a]pyrimidine], the IC50 in test [1] was above 1000 nM; in test [2] (setting [5]), above 1000 nM; in test [4] (setting [7]), above 1000 nM; in test [3] (setting [6]), below 100 nM.

As to `FC(F)c1nc2ccccc2n1-c1cc(N2CCOCC2)n2nc(CN3CC(N4CCC(F)(F)CC4)C3)cc2n1` [Example 66, 5-(2-(difluoromethyl)benzimidazol-1-yl)-2-((3-(4,4-difluoropiperidin-1-yl)azetidin-1-yl)methyl)-7-(morpholin-4-yl)pyrazolo[1,5-a]-pyrimidine], the IC50 in test [1] was 100 to 1000 nM; in test [2] (setting [5]) it was above 1000 nM; in test [4] (setting [7]) it was above 1000 nM; in test [3] (setting [6]), below 100 nM.

Turning to `CC(C)(O)C1CCN(Cc2cc3nc(-c4cncc5[nH]ccc45)cc(N4CCOCC4)n3n2)CC1` [Example 29, 5-(1H-6-azaindol-4-yl)-2-((4-(2-hydroxypropan-2-yl)piperidin-1-yl)methyl)-7-(morpholin-4-yl)-pyrazolo[1,5-a]pyrimidine], the IC50 in test [1] was above 1000 nM; in test [2] (setting [5]), above 1000 nM; in test [3] (setting [6]) it was below 100 nM.

Take `c1cc(-c2cc(N3CCOCC3)n3nc(CN4CCN(C5CC5)CC4)cc3n2)c2cc[nH]c2c1` [Example 20, 2-((4-cyclopropyl-piperazin-1-yl)-methyl)-5-(1H-indol-4-yl)-7-(morpholin-4-yl)pyrazolo[1,5-a]-pyrimidine]: the results for the IC50 in test [1], in test [2] and in test [3] were above 1000 nM, above 1000 nM and below 100 nM, respectively.

In the case of `Cc1nc2ccccc2n1-c1cc(N2CCOCC2)n2nc(CN3CCC(C(C)(C)O)CC3)cc2n1` [Example 49, 5-(2-methylbenzimidazol-1-yl)-2-((4-(2-hydroxypropan-2-yl)-piperidin-1-yl)methyl)-7-(morpholin-4-yl)pyrazolo[1,5-a]-pyrimidine], the results for the IC50 in test [1] and in test [3] (setting [6]) were above 1000 nM and 100 to 1000 nM, respectively.

With `CCc1nc2ccccc2n1-c1cc(N2CCOCC2)n2nc(CN3CCN(C(C)(C)C)CC3)cc2n1` [Example 47, 5-(2-ethylbenzimidazol-1-yl)-2-((4-tert-butylpiperazin-1-yl)methyl)-7-(morpholin-4-yl)pyrazolo[1,5-a]-pyrimidine], the figures for the IC50 in test [1] and in test [3] (setting [6]) were above 1000 nM and below 100 nM, respectively.

Regarding `CN1CCN(C2CCN(Cc3cc4nc(-c5c(F)ccc6[nH]ccc56)cc(N5CCOCC5)n4n3)CC2)CC1` [Example 14, 5-(5-fluoro-1H-indol-4-yl)-2-((4-(4-methylpiperazin-1-yl)piperidin-1-yl)methyl)-7-(morpholin-4-yl)-pyrazolo[1,5-a]pyrimidine], the figures for the IC50 in test [1] and in test [3] (setting [6]) were above 1000 nM and below 100 nM, respectively.

On to `CC(C)c1nc2ccccc2n1-c1cc(N2CCOCC2)n2nc(CN3CCN(C(C)(C)C)CC3)cc2n1` [Example 52, 5-(2-iso-propylbenzimidazol-1-yl)-2-((4-tert-butylpiperazin-1-yl)-methyl)-7-(morpholin-4-yl)-pyrazolo[1,5-a]pyrimidine], for which the IC50 in test [1] is above 1000 nM; in test [3] (setting [6]) it was 100 to 1000 nM.

Turning to `c1cc(-c2cc(N3CCOCC3)n3nc(CN4CCN(C5CCCC5)CC4)cc3n2)c2cc[nH]c2c1` [Example 27, 2-((4-cyclopentylpiperazin-1-yl)-methyl)-5-(1H-indol-4-yl)-7-(morpholin-4-yl)pyrazolo[1,5-a]-pyrimidine], the IC50 in test [1] is above 1000 nM; in test [3], below 100 nM.

Turning to `CC(C)(O)C1CCN(Cc2cc3nc(-n4c(C5CC5)nc5ccccc54)cc(N4CCOCC4)n3n2)CC1` [Example 55, 5-(2-cyclopropylbenzimidazol-1-yl)-2-((4-(2-hydroxypropan-2-yl)-piperidin-1-yl)methyl)-7-(morpholin-4-yl)pyrazolo[1,5-a]-pyrimidine], the IC50 was above 1000 nM in test [1] and 100 to 1000 nM in test [3] (setting [6]).
